Several values for one entry are separate records, joined by “and”; a condition that tells them apart may be missing. Equal values may be shown once.
Legend:
[1] = system: superfused pituitary cell system; test: In vitro GH release, superfused pituitary cell system; format: cell-based, rat
Method: The compounds of the present invention were tested both in vitro in rat cell culture and in vivo in rats to determine GHRH activity. The protocols are as follows:
Twenty-four adult male or female Sprague-Dawley strain rats were decapitated for each experiment. After posterior lobes were removed, the anterior pituitaries were cut into small pieces and incubated in a Dubnoff incubator for 45 minutes at 37° C. in 10 ml. of oxygenated Medium 199 (GIBCO) containing 0.5% collagenase (Sigma Type 1), 0.25% bovine serum albumin (BSA) (Sigma RIA grade), and 5 μg./ml. Gentamicin Sulphate (Sigma). After this incubation, there were no apparent changes in the appearance of the tissue. However, the fragments could be easily dipsersed into single cells by repeated suction and expulsion from a Gilson Pipetman. After 30 to 60 Pipetman operations, the tissue fell apart; a second collagenase incubation was not usually necessary. The cell suspension was centrifuged at room temperature for 10 minutes at […]. The cell pellet was then resuspended in 1.0 ml. of medium. A small aliquot was diluted for counting the cells, and the rest or one suspension was divided into 2 equal volumes. Each volume (containing about 5× 10^6 cells, usually between 3.5 and 7.0×10^6) was mixed with 0.5 ml. Sephadex G-15 which had been equilibrated with previously oxygenated medium. The mixture of pituitary cells and Sephadex was transferred into 2 chambers of the superfusion apparatus and perfused with the medium. […]
ACTH radioimmunoassays were performed on 100 μl aliquots of undiluted superfusion medium essentially as described elsewhere (14); however, the separation of bound and free ACTH was accomplished by a polyethylene glycol facilitated second antibody method. Rat GH was measured in aliquots of undiluted or diluted superfusates to determine either basal or stimulated secretion. […]

release of pituitary GH = test: In vivo release of pituitary GH after one single i.v. injection in female rats; design: species or system rat; details: for Relative Potency (based on the effect of hpGHRH at the actual time) / Responses in plasma GH in ng GH/ml: 1.0 ug/(female) rat i.v.; for Absolute Potency (based on the average value of the four samples at -1 min.): average GH level at -1 min. 63.5 ng GH/ml plasma
Method: Adult female rats were used and were anesthetized with pentobarbital (6 mg/100 g, b.w.), injected i/p. 20 minutes after the injection of pentobarbital; blood samples were taken from the jugular vein (pretreated level) and immediately thereafter hpGH-RH^1-29 (as a control) or GH-RH^1-29 analogs were injected i.v. Blood samples were taken from the jugular vein 5, 15, 60 minutes after the injection. The blood samples were centrifuged, plasma was removed and the GH level was measured by RIA.
In vivo Effects of synthetic GHRH analogs on the release
of pituitary GH following one single i.v. injection of 1.0

release of GH = test: In vivo release of GH in male testosterone primed rats, 4-point assay method; design: species or system rat; details: i.v., individual values
Method: In vivo effect of synthetic GHRH analogs on the release of
GH in male testosterone primed rats. Results were
calculated by the 4-point assay method.
Doses injected are in μg/100 g. b.w., i.v.

## GH-RH^1-29: standard/control: fragment of the first 29 residues of human growth hormone releasing factor, amide
[1]; peptides administered for 3 minutes at 10M^-9 Concentration
  Released GH Level Average: 40.00 ng/mL
[1]; peptides administered for 3 minutes at 10M^-9 Concentration, individual values
  Released GH Level: 62.50 ng/mL and 42.50 ng/mL and 20.50 ng/mL and 34.50 ng/mL
[1]; relative to GH-RH^1-29 standard, 3 minutes at 10M^-9 Concentration
  Potency %: 100%
Release of pituitary GH; time +5 min
  Relative Potency (based on the effect of hpGHRH at the actual time): 100%
  Responses in plasma GH in ng GH/ml: 248 ng/mL
  Absolute Potency (based on the average value of the four samples at -1 min.): 390%
Release of pituitary GH; time +15 min
  Relative Potency (based on the effect of hpGHRH at the actual time): 100%
  Responses in plasma GH in ng GH/ml: 137 ng/mL
  Absolute Potency (based on the average value of the four samples at -1 min.): 215%
Release of pituitary GH; time +60 min
  Relative Potency (based on the effect of hpGHRH at the actual time): 100%
  Responses in plasma GH in ng GH/ml: 29 ng/mL
  Absolute Potency (based on the average value of the four samples at -1 min.): 45%
Release of pituitary GH; time -1 min (pretreated level)
  Relative Potency (based on the effect of hpGHRH at the actual time): 100%
  Responses in plasma GH in ng GH/ml: 66 ng/mL
  Absolute Potency (based on the average value of the four samples at -1 min.): 103%
Release of GH; 5 minutes after injection, dose 0.05 μg/100 g. b.w.
  plasma Gh level: 160 ng·mL and 540 ng·mL and 208 ng·mL and 191 ng·mL and 450 ng·mL and 286 ng·mL and 397 ng·mL
Release of GH; 5 minutes after injection, dose 0.2 μg/100 g. b.w.
  plasma Gh level: 370 ng·mL and 620 ng·mL and 540 ng·mL and 610 ng·mL and 870 ng·mL and 410 ng·mL and 560 ng·mL
Release of GH; 15 minutes after injection, dose 0.05 μg/100 g. b.w.
  plasma Gh level: 65 ng·mL and 241 ng·mL and 97 ng·mL and 70 ng·mL and 161 ng·mL and 145 ng·mL and 149 ng·mL
Release of GH; 15 minutes after injection, dose 0.2 μg/100 g. b.w.
  plasma Gh level: 112 ng·mL and 280 ng·mL and 199 ng·mL and 261 ng·mL and 510 ng·mL and 161 ng·mL and 207 ng·mL

From US4914189A, “Synthetic GHRH analogs” (The Adminstrators of the Tulane Educational Fund, priority 1987, dated 1990)
